# Experimental data as given in patent publication US12042564B2, “Therapeutic solid dosage forms” (CYBIN UK LTD, priority 2020, dated 2024).
# Values joined by “and” are separate entries in the source; they are usually repeats but may differ in a detail not shown here. Equal values may be shown once.
# Key:
# [1] = Plasma pharmacokinetics of test compound after oral dosing in rats; details: rat plasma; for Determined Concentration of test compound in plasma / Determined Concentration of test compound in plasma, Mean: oral dosing; for Determined Concentration of test compound in plasma: individual animal; for Determined Concentration of test compound in plasma, Mean: mean of 3 animals
# [2] = Solubility of DMT fumarate at different pH values in Britton-Robinson buffer; details: before pH adjustment
# [3] = cited from earlier work
# [4] = system: human liver mitochondrial fraction; experiment: Intrinsic clearance and half-life in human liver mitochondrial fraction; type: in vitro ADME; details: 0.5 mg/mL human liver mitochondrial fraction, 1 μM test compounds
# Excerpt: Use of Liver Mitochondrial Fraction to Model Human Metabolism of Deuterated DMT
# [5] = Initial solubility test of DMT fumarate in aqueous vehicles; type: physicochemical
# Experimental: Solubility of DMT fumarate was assessed at a concentration of 10 mg/ml in a small selection of aqueous vehicles (water, saline, 20 mM phosphate buffer and a combination of buffer and saline).
# Phosphate buffer (100 ml) was prepared using 219.53 mg of the dibasic form [HPO4][Na]2 with 183.7 mg of the monobasic form [H2PO4]Na, both dihydrate salts. The solution was adjusted to pH 7.0 with addition of NaOH (1 M) and then made to volume. 10 ml of a 10 mg/ml formulation was prepared.
# To prepare this, sodium chloride was first dissolved in water to produce the saline solution (100 ml, 0.45% w/v). The phosphate salts, in the quantities described above, were then dissolved in the saline solution and the pH was adjusted using NaOH (1 M).
# The pH of these solutions was in the range 3-4.
# [6] = Plasma IAA metabolite levels after oral dosing in rats; details: for Estimated IAA Concentration / Estimated IAA Concentration, Mean: rat plasma, PO Dose (25 mg/kg); for Estimated IAA Concentration: individual animal; for Estimated IAA Concentration, Mean: mean of animals
smiles,measurement,setting,value
"CN(C)CCc1c[nH]c2ccccc12.O=C(O)/C=C/C(=O)O [SPL026, N,N-dimethyltryptamine (DMT) fumarate salt]",mean Cmax,[1]; 25 mg/kg single oral gavage,27.9 ng/mL
same,Determined Concentration of test compound in plasma,"[1]; 1 min, fumarate salt",BLQ (Below the lower limit of quantification 0.310 ng/mL) (2×) and 0.391 ng/mL
same,"Determined Concentration of test compound in plasma, Mean",[1]; 1 min,<0.3 ng/mL
same,Determined Concentration of test compound in plasma,"[1]; 5 min, fumarate salt",BLQ (Below the lower limit of quantification 0.310 ng/mL) (2×) and 0.590 ng/mL
same,"Determined Concentration of test compound in plasma, Mean",[1]; 5 min,<0.4 ng/mL
same,Determined Concentration of test compound in plasma,"[1]; 10 min, fumarate salt",BLQ (Below the lower limit of quantification 0.310 ng/mL) and 4.06 ng/mL and 20.7 ng/mL
same,"Determined Concentration of test compound in plasma, Mean",[1]; 10 min,<8.4 ng/mL
same,Determined Concentration of test compound in plasma,"[1]; 15 min, fumarate salt",0.763 ng/mL and 19.9 ng/mL and 25.7 ng/mL
same,"Determined Concentration of test compound in plasma, Mean",[1]; 15 min,15.5 ng/mL
same,Determined Concentration of test compound in plasma,"[1]; 30 min, fumarate salt",7.77 ng/mL and 25.2 ng/mL and 29.5 ng/mL
same,"Determined Concentration of test compound in plasma, Mean",[1]; 30 min,20.8 ng/mL
same,Determined Concentration of test compound in plasma,"[1]; 45 min, fumarate salt",18.0 ng/mL and 18.5 ng/mL and 28.6 ng/mL
same,"Determined Concentration of test compound in plasma, Mean",[1]; 45 min,21.7 ng/mL
same,Determined Concentration of test compound in plasma,"[1]; 60 min, fumarate salt",16.9 ng/mL and 31.6 ng/mL and 34.1 ng/mL
same,"Determined Concentration of test compound in plasma, Mean",[1]; 60 min,27.5 ng/mL
same,Determined Concentration of test compound in plasma,"[1]; 120 min, fumarate salt",13.7 ng/mL and 11.7 ng/mL and 16.9 ng/mL
same,"Determined Concentration of test compound in plasma, Mean",[1]; 120 min,14.1 ng/mL
same,Determined Concentration of test compound in plasma,"[1]; 180 min, fumarate salt",5.83 ng/mL and 2.57 ng/mL and 2.45 ng/mL
same,"Determined Concentration of test compound in plasma, Mean",[1]; 180 min,3.6 ng/mL
same,Determined Concentration of test compound in plasma,[1]; Predose,BLQ (Below the lower limit of quantification 0.310 ng/mL)
same,"Determined Concentration of test compound in plasma, Mean",[1]; Predose,BLQ (Below the lower limit of quantification 0.310 ng/mL)
same,dissolution at 20 mg/ml in Britton-Robinson buffer solution,[2],very soluble
same,predicted half-life in humans,[3]; humans,5 min
same,duration of action,[3]; psychedelic effect,under 20 minutes
same,Half-life (min) R1,"[4]; 5 μM Serotonin and Benzylamine controls, replicate 1",8.8 min
same,Half-life (min) Mean,"[4]; 5 μM controls, mean of replicates",8.3 min
same,Half-life (min) R3,"[4]; 5 μM controls, replicate 3",7.6 min
same,Half-life (min) R4,"[4]; 5 μM controls, replicate 4",8.3 min
same,pH of these solutions,[5]; 10 mg/ml in aqueous vehicles,3-4
same,Solubility at a concentration of 10 mg/ml in aqueous vehicles,"[5]; water, saline, 20 mM phosphate buffer, buffer and saline",readily soluble
same,Mean IAA Cmax,[6]; rat plasma IAA (semi quantified) after 25 mg/kg PO of the compound,9.204 ng/mL
same,Mean IAA tmax,[6]; rat plasma IAA after 25 mg/kg PO of the compound,30 min
same,Estimated IAA Concentration,[6]; 1 min,BLQ
same,"Estimated IAA Concentration, Mean",[6]; 1 min,BLQ
same,Estimated IAA Concentration,"[6]; 5 min, fumarate salt, 25 mg/kg",0.549 ng/mL and 1.33 ng/mL and 1.64 ng/mL
same,"Estimated IAA Concentration, Mean",[6]; 5 min,1.171 ng/mL
same,Estimated IAA Concentration,"[6]; 10 min, fumarate salt, 25 mg/kg",1.08 ng/mL and 2.58 ng/mL and 4.39 ng/mL
same,"Estimated IAA Concentration, Mean",[6]; 10 min,2.683 ng/mL
same,Estimated IAA Concentration,"[6]; 15 min, fumarate salt, 25 mg/kg",1.82 ng/mL and 5.55 ng/mL and 6.09 ng/mL
same,"Estimated IAA Concentration, Mean",[6]; 15 min,4.487 ng/mL
same,Estimated IAA Concentration,"[6]; 30 min, fumarate salt, 25 mg/kg",7.08 ng/mL and 11.8 ng/mL and 8.88 ng/mL
same,"Estimated IAA Concentration, Mean",[6]; 30 min,9.245 ng/mL
same,Estimated IAA Concentration,"[6]; 45 min, fumarate salt, 25 mg/kg",5.10 ng/mL and 6.44 ng/mL and 9.98 ng/mL
same,"Estimated IAA Concentration, Mean",[6]; 45 min,7.174 ng/mL
same,Estimated IAA Concentration,"[6]; 60 min, fumarate salt, 25 mg/kg",6.18 ng/mL and 9.74 ng/mL and 11.7 ng/mL
same,"Estimated IAA Concentration, Mean",[6]; 60 min,9.204 ng/mL
same,Estimated IAA Concentration,"[6]; 120 min, fumarate salt, 25 mg/kg",7.40 ng/mL and 7.70 ng/mL and 8.67 ng/mL
same,"Estimated IAA Concentration, Mean",[6]; 120 min,7.924 ng/mL
same,Estimated IAA Concentration,"[6]; 180 min, fumarate salt, 25 mg/kg",4.34 ng/mL and 2.53 ng/mL and 3.08 ng/mL
same,"Estimated IAA Concentration, Mean",[6]; 180 min,3.316 ng/mL
same,Estimated IAA Concentration,[6]; Predose,BLQ
same,"Estimated IAA Concentration, Mean",[6]; Predose,BLQ
